Laboratory results reported in patent US20190054054A1, “Methods reducing or preventing oxidation of high density lipoprotein (HDL)” (Amarin Pharmaceuticals Ireland Limited, priority 2017, published 2019).

Tests used:
[1] = system: human sdLDL; test: Copper-induced sdLDL oxidation, TBARS (Example 7); format: biochemical
Description: (§1) An experiment to study the antioxidant effect of EPA in LDL and small dense […] performed. […] Fenofibrate, gemfibrozil, and niacin were purchased from Sigma-Aldrich. […] Vitamin E was also incubated with sample aliquots as a positive control.

[2] = Glucose-induced membrane lipid peroxidation (LOOH, CHOD-iodide assay) in DLPC/cholesterol vesicles (Examples 4 and 5); format: biochemical; conditions: each at 1.0 μM; glucose 200 mg/dL; 96 hours
Description: Vitamin E (α-tocopherol) was also purchased from Sigma-Aldrich and prepared in ethanol at 1.0 mM (e=[…] at 294 nm) just prior to experimental use. […] All test compounds were further diluted in ethanol or aqueous buffer as needed. Glucose was prepared in saline buffer (0.5 mM HEPES, 154 mM NaCl, pH 7.3) at 11.0 mM (200 mg/dL). CHOD-iodide color reagent (stock) was prepared, with slight modification, as described by from El-Saadani et al. (J. […] Samples were shell-dried under nitrogen gas and placed under vacuum for 1 h to remove residual solvent. […] Lipid suspensions were then vortexed for 3 min at ambient temperature to form MLVs. All MLV samples were subjected to time-dependent autoxidation by incubating at 37° C. in an uncovered, shaking water bath. This method allows lipid peroxidation to occur gradually without requiring the use of exogenous initiators. Small aliquots (5-100 μL) of each sample were removed, immediately following MLV preparation (0 hour) and after exposing samples to oxidative conditions for 72 or 96 hour, and combined with 1.0 mL of activated CHOD-iodide color reagent. Aliquot volume was reduced with each successive time point to ensure that spectrophotometric readings were within the optimal adsorption range. Test samples were covered and incubated in darkness at room temperature for at least 4 hr. Sample absorbances were then measured against a CHOD blank at 365 nm using a Beckman DU-640 spectrophotometer. The CHOD colorimetric assay is based on the oxidation of iodide (I^−) by lipid hydroperoxide (LOOH) to form triiodide (I3^−), the quantity of which is directly proportional to the amount of LOOH present in the lipid sample. The molar absorptivity (ε) of I3^− is 2.46×10^4 M^−1 cm^−1 at 365 nm. An experiment was conducted to compare the ability of EPA to prevent lipid hydroperoxide formation in model membranes treated with glucose to two other 20-carbon fatty acids: eicosanoic acid (“EA,” also referred to as arachidic acid, C20:0) and eicosatrienoic acid (“ETE,” C20:3, n-3). All MLV samples were subjected to time-dependent autoxidation by incubating at 37° C. in an uncovered, shaking water bath. This method allows lipid peroxidation to occur gradually without requiring the use of exogenous initiators. Small aliquots (5-100 μL) of each sample were removed, immediately following MLV preparation (0 hr) and after exposing samples to oxidative conditions for 72 or 96 hr, and combined with 1.0 mL of activated CHOD-iodide color reagent. Aliquot volume was reduced with each successive time point to ensure that spectrophotometric readings were within the optimal adsorption range. Test samples were covered and incubated in darkness at room temperature for at least 4 hr. Sample absorbances were then measured against a CHOD blank at 365 nm using a Beckman DU-640 spectrophotometer. The CHOD colorimetric assay is based on the oxidation of iodide (I^−) by lipid hydroperoxide (LOOH) to form triiodide (I3^−), the quantity of which is directly proportional to the amount of LOOH present in the lipid sample. The molar absorptivity (ε) of I3^− is 2.46×10^4 M^−1 cm^−1 at 365 nm.

[3] = system: human LDL; test: Copper-induced oxidation of unfractionated LDL, TBARS (Example 7); format: biochemical
Description: as §1

[4] = system: rat renal glomerular endothelial cells; test: NO and ONOO^− release ex vivo from rat glomerular endothelial cells exposed to oxLDL and high glucose (Example 13); format: cell-based; conditions: oxLDL 11 mg/dL and glucose 300 mg/dL; treatment 1 hr at 10.0 μM; versus vehicle
Description: Healthy male Wistar Kyoto (WKY) rats, aged 7-9 weeks and weighing 250±20 g, were obtained from inbred colonies (National Institutes of Health, Bethesda, Md.). Animals were housed in a controlled environment that provided food and water ad libitum prior to the study. […] Animals were sacrificed and tissue samples obtained immediately for experimentation. All procedures were conducted in accordance with standard Institutional Animal Care and Use Committee guidelines and conformed to the Guide for the Care and Use of Laboratory Animals published by the US National Institutes of Health.
EPA and DHA were purchased from Sigma-Aldrich (St. Louis, Mo.) and solubilized in ethanol to 1.0 mM under nitrogen atmosphere. […] The calcium ionophore (Cal), A23187, was purchased from Sigma-Aldrich and prepared in aqueous buffer to 1.0 mM. All test compounds were further diluted in ethanol or aqueous buffer as needed.
Venous blood from healthy normolipidemic volunteers was collected into Na-EDTA (1 mg/mL blood) vacuum tubes after a 12-hour fast. […] The LDL fraction was dialyzed for 96 hours against PBS containing 0.3 mM EDTA and stored at 4° C. until experimental use.
LDL was oxidized according to the methods of Huber et al. 16 Briefly, the purified LDL fraction was dialyzed against Tris/NaCl Buffer (50 mM Tris in 0.15 M NaCl, pH 8.0) to remove EDTA. Additional buffer was added to adjust the protein concentration to 30 mg/mL. LDL oxidation was initiated with 20 μM CuSO4 and monitored spectrophotometrically (234 nm) over a period of 24 hours until complete. The oxLDL was then dialyzed at 4° C. with 4 L Tris buffer, filtered with a 0.22 µm filter, and stored under nitrogen at 4° C.
Immediately after sacrificing the rats, kidneys were removed, cut into […] sections and transferred to a separate organ chamber containing Dulbecco's phosphate buffered saline ([…]) and […] glucose at pH 7.4.
Concurrent measurements of NO and ONOO^− were performed on intact glomerular (cortical zone) endothelial cells using tandem electrochemical nanosensors, as previously described (FIG. 45).
The NO/ONOO^− nanosensor was positioned near the surface of the endothelial cells using a computer-controlled M3301 micromanipulator (x-y-z resolution of 0.2 μm) and microscope (both from World Precision Instruments, Berlin, Germany) fitted with a CD camera. Each analyte was measured from amperograms and standard calibration curves collected under maximum current. […] After establishing a background current, maximal NO and ONOO^− release was induced by injecting Cal into the organ chamber using a nanoinjector (World Precision Instruments, Berlin Germany). Changes in current (proportional to the molar concentrations of NO or ONOO^− released) were monitored continuously immediately following Cal stimulation.
Data are presented as mean+standard deviation (SD) for (N) separate samples or experiments. Differences between groups were analyzed using the unpaired, two-tailed Student's t-test (for comparisons between only two groups) or ANOVA followed by Student-Newman-Keuls multiple comparisons post hoc analysis (for comparisons between three or more groups). Only differences with probability values less than 0.05 were considered significant.

[5] = 10 mg, administered for 12 weeks; cited from earlier work
[6] = molecular target: T1, HMG-CoA reductase (Homo sapiens, UniProt P04035); conditions: metabolized by hepatic cytochrome P450; cited from earlier work
T1 sequence (P04035 1-888): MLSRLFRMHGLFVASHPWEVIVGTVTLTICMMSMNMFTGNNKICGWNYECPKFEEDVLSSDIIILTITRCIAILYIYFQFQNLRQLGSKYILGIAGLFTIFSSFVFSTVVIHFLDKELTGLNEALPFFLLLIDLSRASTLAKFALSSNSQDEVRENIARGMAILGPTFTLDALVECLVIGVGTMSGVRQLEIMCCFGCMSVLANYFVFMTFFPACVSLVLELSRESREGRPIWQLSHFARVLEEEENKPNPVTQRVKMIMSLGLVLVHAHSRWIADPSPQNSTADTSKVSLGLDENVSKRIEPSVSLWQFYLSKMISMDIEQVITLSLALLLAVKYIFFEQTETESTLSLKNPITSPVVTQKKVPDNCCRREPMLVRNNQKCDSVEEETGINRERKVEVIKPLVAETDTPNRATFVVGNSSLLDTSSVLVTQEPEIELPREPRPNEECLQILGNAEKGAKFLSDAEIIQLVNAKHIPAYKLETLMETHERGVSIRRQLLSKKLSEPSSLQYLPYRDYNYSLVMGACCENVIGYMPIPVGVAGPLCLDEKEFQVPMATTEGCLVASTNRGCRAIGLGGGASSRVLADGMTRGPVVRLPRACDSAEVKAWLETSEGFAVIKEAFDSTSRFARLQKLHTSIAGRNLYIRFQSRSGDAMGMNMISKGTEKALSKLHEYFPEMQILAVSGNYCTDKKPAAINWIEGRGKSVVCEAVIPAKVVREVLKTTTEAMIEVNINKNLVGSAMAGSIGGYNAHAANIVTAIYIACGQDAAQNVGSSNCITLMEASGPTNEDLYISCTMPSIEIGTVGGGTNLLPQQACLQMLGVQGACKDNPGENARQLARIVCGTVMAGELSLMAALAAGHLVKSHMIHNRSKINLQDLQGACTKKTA

[7] = 80 mg for 16 weeks; 2,341 patients; cited from earlier work

Row | Compound | inhibition of sdLDL oxidation as compared to vehicle ([1]; 1.0 μM (each agent), 1 hr) [%] | inhibition of sdLDL oxidation as compared to vehicle ([1]; ATM 0.5 μM, alone or in combination with EPA 1.0 μM, 1 hr) [%] | inhibition of sdLDL oxidation ([1]; ATM at the highest dose, 1 hr) [%] | antioxidant effect, separate treatments [2] | effect on unfractionated LDL oxidation, dose dependence ([3]; 1 hour) | increase in NO release [4] [%] | reduction of ONOO^− release [4] [%] | circulating levels of chlorotyrosine, nitrotyrosine, and dityrosine [5] | share of circulating HMG-CoA reductase inhibitory activity accounted for by the active metabolites [6] | antioxidant activity, separately ([1]; 10.0 μM, sdLDL) | inhibition of sdLDL oxidation as compared to vehicle ([1]; each agent at 10.0 μM, 1 hour (FIG. 17)) [%] | levels of oxidized lipids associated with all apoB100-containing lipid particles [7] | antioxidant activity, separately ([3]; 10.0 μM, unfractionated LDL)
1 | CC(C)c1c(C(=O)Nc2ccccc2O)c(-c2ccccc2)c(-c2ccc(F)cc2)n1CC[C@@H](O)C[C@@H](O)CC(=O)O [ATM, Atorvastatin ortho-(o-) hydroxy (active) metabolite] | 18±5 | 5±5 | 90±2 | separate and potent antioxidant effects | significant and dose-dependent inhibition of unfractionated LDL oxidation beginning at 1.0 μM | 205 | 25 | – | – | – | – | – | –
2 | CC(C)c1c(C(=O)Nc2ccccc2)c(-c2ccccc2)c(-c2ccc(F)cc2)n1CC[C@@H](O)C[C@@H](O)CC(=O)O [atorvastatin] | – | – | – | – | – | – | – | significantly reduce circulating levels of chlorotyrosine, nitrotyrosine, and dityrosine | approximately 70% | did not have any significant antioxidant activity | 0.1±7 | significant reduction in levels of oxidized lipids | did not have any significant antioxidant activity
